We go through 9 compounds from patent US10065963B2 (Incyte Corporation, priority 2015, dated 2018).

Counter-ions that a name gives are not always drawn. Like-named read-outs stand apart in the source and are kept apart here.

The target of assay [1] is PI3Kγ (p110γ) Recombinant Human Protein (Homo sapiens (Human), UniProt P48736). Nature of the assay: PI3K-γ scintillation proximity assay. The assay is classed as biochemical. The following applies: 2 μM ATP, 20 μM PIP2.
In assay [2] the test system is Phosphorylated Ribosomal Protein S6 (RPS6) in THP-1 cells. Description: THP-1 RPS6 ELISA assay. The assay is classed as cell-based, human. The following applies: 10 nM MCP-1, read-out: PI3Kγ_THP1_RPS6_ELISA IC50. (An ELISA detects its analyte on a solid surface through an enzyme-linked reagent.)
The target of assay [3] is PI3Kδ (p110δ/p85α) Recombinant Human Protein (Homo sapiens (Human), UniProt O00329). Nature of the assay: PI3Kδ scintillation proximity assay. The assay is classed as biochemical. The following applies: 2 μM ATP, 20 μM PIP2. In general terms: SPA uses beads or plates that emit light when radiolabelled molecules are held near them.
Where [4] appears, read: Homo sapiens, THP-1, THP-1 cells.

Chain of PI3Kδ (p110δ/p85α) Recombinant Human Protein (O00329 whole entry): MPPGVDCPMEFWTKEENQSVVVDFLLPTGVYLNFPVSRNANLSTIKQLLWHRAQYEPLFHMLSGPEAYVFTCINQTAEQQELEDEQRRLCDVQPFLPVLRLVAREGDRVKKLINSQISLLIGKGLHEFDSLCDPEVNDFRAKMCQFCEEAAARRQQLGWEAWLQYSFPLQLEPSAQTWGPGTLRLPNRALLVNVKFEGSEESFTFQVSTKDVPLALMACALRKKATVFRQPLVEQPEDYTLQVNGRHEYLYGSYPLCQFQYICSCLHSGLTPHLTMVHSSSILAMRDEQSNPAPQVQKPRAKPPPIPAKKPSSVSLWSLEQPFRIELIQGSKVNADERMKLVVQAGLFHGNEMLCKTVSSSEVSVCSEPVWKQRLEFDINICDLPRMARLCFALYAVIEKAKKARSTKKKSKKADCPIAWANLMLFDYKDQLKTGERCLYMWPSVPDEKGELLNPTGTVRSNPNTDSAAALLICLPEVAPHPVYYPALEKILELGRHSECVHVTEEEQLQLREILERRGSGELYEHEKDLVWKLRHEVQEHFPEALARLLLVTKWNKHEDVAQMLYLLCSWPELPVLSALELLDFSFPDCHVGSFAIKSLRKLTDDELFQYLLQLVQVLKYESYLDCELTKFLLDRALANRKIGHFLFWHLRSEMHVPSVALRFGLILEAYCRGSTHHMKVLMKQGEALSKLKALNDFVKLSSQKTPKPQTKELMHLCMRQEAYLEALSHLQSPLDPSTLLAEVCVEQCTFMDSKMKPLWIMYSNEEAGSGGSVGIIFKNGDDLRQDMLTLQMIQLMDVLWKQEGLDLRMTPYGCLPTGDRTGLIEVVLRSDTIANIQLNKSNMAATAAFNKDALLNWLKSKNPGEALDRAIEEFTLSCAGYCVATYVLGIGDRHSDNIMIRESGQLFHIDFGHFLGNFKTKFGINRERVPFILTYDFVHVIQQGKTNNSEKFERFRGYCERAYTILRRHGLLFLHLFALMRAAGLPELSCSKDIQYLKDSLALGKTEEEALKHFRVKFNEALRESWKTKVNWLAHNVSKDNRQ
Chain of PI3Kδ (p110δ/p85α) Recombinant Human Protein (P27986 whole entry partner): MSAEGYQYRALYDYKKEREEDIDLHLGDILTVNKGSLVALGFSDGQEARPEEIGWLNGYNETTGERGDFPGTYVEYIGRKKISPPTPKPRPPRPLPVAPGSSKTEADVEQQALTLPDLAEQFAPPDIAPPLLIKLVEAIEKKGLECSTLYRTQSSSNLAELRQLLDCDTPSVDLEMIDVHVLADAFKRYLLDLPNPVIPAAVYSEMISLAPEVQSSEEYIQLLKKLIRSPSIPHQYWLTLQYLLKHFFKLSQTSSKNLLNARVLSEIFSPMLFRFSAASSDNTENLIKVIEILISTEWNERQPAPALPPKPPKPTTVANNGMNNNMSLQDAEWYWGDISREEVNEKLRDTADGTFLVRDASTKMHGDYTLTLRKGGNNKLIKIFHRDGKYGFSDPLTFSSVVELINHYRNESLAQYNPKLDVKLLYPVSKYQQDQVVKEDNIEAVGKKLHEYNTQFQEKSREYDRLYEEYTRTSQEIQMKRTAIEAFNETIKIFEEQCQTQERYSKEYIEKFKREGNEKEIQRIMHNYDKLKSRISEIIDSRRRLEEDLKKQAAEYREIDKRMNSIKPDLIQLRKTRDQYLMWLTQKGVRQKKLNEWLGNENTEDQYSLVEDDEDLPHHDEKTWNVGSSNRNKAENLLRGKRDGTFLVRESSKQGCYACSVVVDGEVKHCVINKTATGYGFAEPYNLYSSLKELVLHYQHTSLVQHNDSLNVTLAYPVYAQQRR
Chain of PI3Kγ (p110γ) Recombinant Human Protein (P48736 whole entry): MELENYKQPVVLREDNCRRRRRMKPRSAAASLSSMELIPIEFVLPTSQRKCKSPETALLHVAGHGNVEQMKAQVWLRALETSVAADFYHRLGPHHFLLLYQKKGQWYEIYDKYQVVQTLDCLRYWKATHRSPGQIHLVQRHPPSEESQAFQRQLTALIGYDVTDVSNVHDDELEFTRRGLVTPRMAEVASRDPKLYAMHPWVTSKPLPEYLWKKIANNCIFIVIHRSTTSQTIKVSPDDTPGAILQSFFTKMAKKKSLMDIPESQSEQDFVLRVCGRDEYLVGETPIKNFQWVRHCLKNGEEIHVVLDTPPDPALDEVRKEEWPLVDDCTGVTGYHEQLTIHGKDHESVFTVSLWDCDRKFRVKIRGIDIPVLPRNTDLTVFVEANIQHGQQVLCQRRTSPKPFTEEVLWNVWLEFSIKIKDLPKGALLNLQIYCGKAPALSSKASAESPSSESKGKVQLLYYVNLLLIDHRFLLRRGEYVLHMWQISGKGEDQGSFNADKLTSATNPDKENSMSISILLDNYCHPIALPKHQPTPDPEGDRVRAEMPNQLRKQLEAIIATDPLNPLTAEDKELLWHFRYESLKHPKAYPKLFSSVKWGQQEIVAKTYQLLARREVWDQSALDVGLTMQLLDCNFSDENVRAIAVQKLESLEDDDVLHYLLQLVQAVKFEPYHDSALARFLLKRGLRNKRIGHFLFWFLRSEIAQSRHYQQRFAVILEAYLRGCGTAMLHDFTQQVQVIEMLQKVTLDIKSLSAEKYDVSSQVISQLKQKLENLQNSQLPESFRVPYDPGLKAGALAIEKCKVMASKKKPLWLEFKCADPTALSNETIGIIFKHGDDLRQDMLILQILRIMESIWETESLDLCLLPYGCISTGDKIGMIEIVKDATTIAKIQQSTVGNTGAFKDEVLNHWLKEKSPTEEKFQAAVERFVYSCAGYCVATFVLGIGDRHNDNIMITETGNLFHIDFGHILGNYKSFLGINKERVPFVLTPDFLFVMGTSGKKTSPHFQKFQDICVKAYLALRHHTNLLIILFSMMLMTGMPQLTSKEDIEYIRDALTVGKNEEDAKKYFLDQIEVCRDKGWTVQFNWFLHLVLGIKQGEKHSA

By IC50 is commonly meant the concentration that inhibits the measured activity by half. `CC(NC(=O)c1c(N)nn2cccnc12)c1cc(Cl)c2cncn2c1N1CCC(C)(O)CC1` (stereo not drawn) [Example 87, 2-Amino-N-(1-(8-chloro-5-(4-hydroxy-4-methylpiperidin-1-yl)imidazo[1,5-a]pyridin-6-yl)ethyl)pyrazolo[1,5-a]pyrimidine-3-carboxamide trifluoroacetate]: the IC50 in assay [1] is < 100 nM; in assay [2] (setting [4]) it was < 500 nM; in assay [3], < 500 nM.

For `CC(NC(=O)c1c(N)nn2cccnc12)c1cc(Cl)c2cncn2c1N1CCC(C)(C#N)CC1` (stereo not drawn) [Example 88, 2-Amino-N-(1-(8-chloro-5-(4-cyano-4-methylpiperidin-1-yl)imidazo[1,5-a]pyridin-6-yl)ethyl)pyrazolo[1,5-a]pyrimidine-3-carboxamide trifluoroacetate], the IC50 was < 100 nM in assay [1], < 500 nM in assay [2] (setting [4]) and < 100 nM in assay [3].

Consider `CC(NC(=O)c1c(N)nn2cccnc12)c1cc(Cl)c2cncn2c1N1CCC(O)(C(F)(F)F)CC1` (stereo not drawn) [Example 89, 2-Amino-N-(1-(8-chloro-5-(4-hydroxy-4-(trifluoromethyl)piperidin-1-yl)imidazo[1,5-a]pyridin-6-yl)ethyl)pyrazolo[1,5-a]pyrimidine-3-carboxamide trifluroacetate], for which the IC50 is < 100 nM in assay [1], < 500 nM in assay [2] (THP-1 cells) and < 500 nM in assay [3].

Regarding `COC1CCN(c2c(C(C)NC(=O)c3c(N)nn4cccnc34)cc(Cl)c3cn[nH]c23)C1` (stereo not drawn) [Example 91, 2-Amino-N-{1-[4-chloro-7-(3-methoxypyrrolidin-1-yl)-2H-indazol-6-yl]ethyl}pyrazolo[1,5-a]pyrimidine-3-carboxamide bis(trifluoroacetate)], the IC50 in assay [1] is < 100 nM; in assay [2] (setting [4]), < 1000 nM; in assay [3], < 100 nM.

For `CNS(=O)(=O)C1CCN(c2c(C(C)NC(=O)c3c(N)nn4cccnc34)cc(Cl)c3cn[nH]c23)C1` (stereo not drawn) [Example 92, 2-Amino-N-[1-(4-chloro-7-{3-[(methylamino)sulfonyl)pyrrolidin-1-yl}-2H-indazol-6-yl)ethyl]pyrazolo[1,5-a]pyrimidine-3-carboxamide], the IC50 in assay [1] is < 100 nM; in assay [2] (setting [4]), < 500 nM; in assay [3], < 500 nM.

As to `CC(NC(=O)c1c(N)nn2cccnc12)c1cc(Cl)c2cn[nH]c2c1N1CCC(S(=O)(=O)N(C)C)CC1` (stereo not drawn) [Example 93, 2-Amino-N-[1-(4-chloro-7-{4-[(dimethylamino)sulfonyl]piperidin-1-yl}-2H-indazol-6-yl)ethyl]pyrazolo[1,5-a]pyrimidine-3-carboxamide], the values for the IC50 in assay [1], in assay [2] (setting [4]) and in assay [3] were < 100 nM, > 1000 nM and < 2000 nM, respectively.

Take `CC(NC(=O)c1c(N)nn2cccnc12)c1cc(Cl)c2cn[nH]c2c1N1CCS(=O)(=O)CC1` (stereo not drawn) [Example 94, 2-Amino-N-{1-[4-chloro-7-(1,1-dioxidothiomorpholin-4-yl)-2H-indazol-6-yl]ethyl}pyrazolo[1,5-a]pyrimidine-3-carboxamide trifluoroacetate]: the values for the IC50 in assay [1], in assay [2] (setting [4]) and in assay [3] were < 100 nM, < 500 nM and < 500 nM, respectively.

In the case of `CC(=O)N[C@H]1CCN(c2c(C(C)NC(=O)c3c(N)nn4cccnc34)cc(Cl)c3cn[nH]c23)C1` (stereo partly drawn) [Example 95, N-(1-{7-[(3S)-3-(Acetylamino)pyrrolidin-1-yl]-4-chloro-2H-indazol-6-yl}ethyl)-2-aminopyrazolo[1,5-a]pyrimidine-3-carboxamide trifluoroacetate], the IC50 is < 100 nM in assay [1], < 1000 nM in assay [2] (setting [4]) and < 100 nM in assay [3].

`CC(NC(=O)c1c(N)nn2cccnc12)c1cc(Cl)c2cn[nH]c2c1N1CC[C@H](NS(C)(=O)=O)C1` (stereo partly drawn) [Example 96A, 2-Amino-N-[1-(4-chloro-7-{(3S)-3-[(methylsulfonyl)amino]pyrrolidin-1-yl}-2H-indazol-6-yl)ethyl]pyrazolo[1,5-a]pyrimidine-3-carboxamide trifluoroacetate]: the IC50 in assay [1] is < 100 nM; in assay [2] (setting [4]) it was < 1000 nM; in assay [3], < 100 nM.
